Columns and labels:
Assay in all cases: normalised viability (% of control), CellTiter-Blue; higher = more viable cells (about 100 = DMSO control)
MDA-MB-436 [1] = conditions: 10000 nM; incubation time: 72 h
In short: (§1)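 The reported figure is normalised viability at a single listed concentration of the series. Breast cancer cell lines (20 µl suspension) went onto 384-well plates holding compound in 5 µl medium for 72 h. CellTiter-Blue (2.5 µl, 2 h, 37 °C) was read by fluorescence at 560/590 nm, and each plate was scaled to vehicle at 100 and a positive kill control at 0.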

Hs578T [2] = conditions: 10000 nM; incubation time: 72 h
In short: as §1

MDA-MB-231 [3] = conditions: 10000 nM; incubation time: 72 h
In short: as §1

HCC1937 [4] = conditions: 10000 nM; incubation time: 72 h
In short: as §1

MDA-MB-468 [5] = conditions: 10000 nM; incubation time: 72 h
In short: as §1

BT-549 [6] = conditions: 10000 nM; incubation time: 72 h
In short: as §1

HCC1599 [7] = conditions: 10000 nM; incubation time: 72 h
In short: as §1

DU-4475 [8] = conditions: 100 nM; incubation time: 72 h
In short: as §1

HDQ-P1 [9] = conditions: 100 nM; incubation time: 72 h
In short: as §1

BT-474 = conditions: 10000 nM; incubation time: 72 h
In short: as §1

CAL-85-1 [10] = conditions: 100 nM; incubation time: 72 h
In short: as §1

CAL-51 [11] = conditions: 100 nM; incubation time: 72 h
In short: as §1

CAL-148 [12] = conditions: 100 nM; incubation time: 72 h
In short: as §1

MDA-MB-453 [13] = conditions: 3 nM; incubation time: 72 h
In short: as §1

MDA-MB-436 [14] = conditions: 10 nM; incubation time: 72 h
In short: as §1

Hs578T [15] = conditions: 10 nM; incubation time: 72 h
In short: as §1

SK-BR-3 = conditions: 10 nM; incubation time: 72 h
In short: as §1

MDA-MB-231 [16] = conditions: 10 nM; incubation time: 72 h
In short: as §1

HCC1937 [17] = conditions: 10 nM; incubation time: 72 h
In short: as §1

MDA-MB-468 [18] = conditions: 10 nM; incubation time: 72 h
In short: as §1

BT-549 [19] = conditions: 10 nM; incubation time: 72 h
In short: as §1

HCC1599 [20] = conditions: 10 nM; incubation time: 72 h
In short: as §1

CAL-120 = conditions: 10 nM; incubation time: 72 h
In short: as §1

MFM-223 = conditions: 10 nM; incubation time: 72 h
In short: as §1

HCC1143 = conditions: 10 nM; incubation time: 72 h
In short: as §1

HDQ-P1 [21] = conditions: 3 nM; incubation time: 72 h
In short: as §1

CAL-85-1 [22] = conditions: 3 nM; incubation time: 72 h
In short: as §1

CAL-51 [23] = conditions: 3 nM; incubation time: 72 h
In short: as §1

MDA-MB-453 [24] = conditions: 1000 nM; incubation time: 72 h
Protocol: (§2)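 DSRT, CellTiter-Blue viability, 72 h incubation. Signal is normalised to DMSO and benzethonium chloride controls. Value is the normalised response at dose 7.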

DU-4475 [25] = conditions: 1000 nM; incubation time: 72 h
Protocol: as §2

HDQ-P1 [26] = conditions: 1000 nM; incubation time: 72 h
Protocol: as §2

CAL-85-1 [27] = conditions: 1000 nM; incubation time: 72 h
Protocol: as §2

CAL-51 [28] = conditions: 1000 nM; incubation time: 72 h
Protocol: as §2

CAL-148 [29] = conditions: 1000 nM; incubation time: 72 h
Protocol: as §2

| Structure (SMILES) | normalised viability (MDA-MB-436 [1]) [%] | normalised viability (Hs578T [2]) [%] | normalised viability (MDA-MB-231 [3]) [%] | normalised viability (HCC1937 [4]) [%] | normalised viability (MDA-MB-468 [5]) [%] | normalised viability (BT-549 [6]) [%] | normalised viability (HCC1599 [7]) [%] | normalised viability (DU-4475 [8]) [%] | normalised viability (HDQ-P1 [9]) [%] | normalised viability (BT-474) [%] | normalised viability (CAL-85-1 [10]) [%] | normalised viability (CAL-51 [11]) [%] | normalised viability (CAL-148 [12]) [%] | normalised viability (MDA-MB-453 [13]) [%] | normalised viability (MDA-MB-436 [14]) [%] | normalised viability (Hs578T [15]) [%] | normalised viability (SK-BR-3) [%] | normalised viability (MDA-MB-231 [16]) [%] | normalised viability (HCC1937 [17]) [%] | normalised viability (MDA-MB-468 [18]) [%] | normalised viability (BT-549 [19]) [%] | normalised viability (HCC1599 [20]) [%] | normalised viability (CAL-120) [%] | normalised viability (MFM-223) [%] | normalised viability (HCC1143) [%] | normalised viability (HDQ-P1 [21]) [%] | normalised viability (CAL-85-1 [22]) [%] | normalised viability (CAL-51 [23]) [%] | normalised viability (MDA-MB-453 [24]) [%] | normalised viability (DU-4475 [25]) [%] | normalised viability (HDQ-P1 [26]) [%] | normalised viability (CAL-85-1 [27]) [%] | normalised viability (CAL-51 [28]) [%] | normalised viability (CAL-148 [29]) [%] |
| --- | --- | --- | --- | --- | --- | --- | --- | --- | --- | --- | --- | --- | --- | --- | --- | --- | --- | --- | --- | --- | --- | --- | --- | --- | --- | --- | --- | --- | --- | --- | --- | --- | --- | --- |
| CC(C)(C#N)c1cc(Cn2cncn2)cc(C(C)(C)C#N)c1 [Anastrozole] | 97.1 | 107 | 106 | 90.9 | 95.2 | 85.1 | 104 | 98.7 | 91.8 | 122 | 91.8 | 111 | 98.1 | 104 | 109 | 99.4 | 95.1 | 96.3 | 90.3 | 102 | 94 | 98 | 84.3 | 96.9 | 73.5 | 102 | 93.4 | 112 | 105 | 91.3 | 84.2 | 90.8 | 93.9 | 90.4 |
| O=C(O)CCCc1ccc(N(CCCl)CCCl)cc1 [Chlorambucil] | 83.3 | 87.5 | 88.4 | 52.8 | 81.2 | 74.7 | 92.5 | 112 | 111 | 118 | 98.6 | 107 | 103 | 131 | 89.7 | 111 | 113 | 101 | 51.5 | 107 | 80.9 | 108 | 104 | 95.5 | 83.5 | 114 | 101 | 115 | 113 | 103 | 98.9 | 97.5 | 101 | 105 |
